Our source for the IC50 values is ChEMBL document CHEMBL1201862, “PubChem BioAssay data set” (2004).

Molecules are shown by their SMILES. Calls of active or inactive are those of the source. Rule as the data show it: actives have a measured IC50 and inactives only a lower limit.

For the assay, the target named is Envelope glycoprotein gp160 (Human immunodeficiency virus 1, UniProt Q6QLK5). The experiment in a line: cell-free HIV fusion peptide-binding blockers – biochemical, uHTS, fluorescence dequenching, […] (AID 1986).
Envelope glycoprotein gp160, sequence (Q6QLK5 whole entry, the tested form may be a part): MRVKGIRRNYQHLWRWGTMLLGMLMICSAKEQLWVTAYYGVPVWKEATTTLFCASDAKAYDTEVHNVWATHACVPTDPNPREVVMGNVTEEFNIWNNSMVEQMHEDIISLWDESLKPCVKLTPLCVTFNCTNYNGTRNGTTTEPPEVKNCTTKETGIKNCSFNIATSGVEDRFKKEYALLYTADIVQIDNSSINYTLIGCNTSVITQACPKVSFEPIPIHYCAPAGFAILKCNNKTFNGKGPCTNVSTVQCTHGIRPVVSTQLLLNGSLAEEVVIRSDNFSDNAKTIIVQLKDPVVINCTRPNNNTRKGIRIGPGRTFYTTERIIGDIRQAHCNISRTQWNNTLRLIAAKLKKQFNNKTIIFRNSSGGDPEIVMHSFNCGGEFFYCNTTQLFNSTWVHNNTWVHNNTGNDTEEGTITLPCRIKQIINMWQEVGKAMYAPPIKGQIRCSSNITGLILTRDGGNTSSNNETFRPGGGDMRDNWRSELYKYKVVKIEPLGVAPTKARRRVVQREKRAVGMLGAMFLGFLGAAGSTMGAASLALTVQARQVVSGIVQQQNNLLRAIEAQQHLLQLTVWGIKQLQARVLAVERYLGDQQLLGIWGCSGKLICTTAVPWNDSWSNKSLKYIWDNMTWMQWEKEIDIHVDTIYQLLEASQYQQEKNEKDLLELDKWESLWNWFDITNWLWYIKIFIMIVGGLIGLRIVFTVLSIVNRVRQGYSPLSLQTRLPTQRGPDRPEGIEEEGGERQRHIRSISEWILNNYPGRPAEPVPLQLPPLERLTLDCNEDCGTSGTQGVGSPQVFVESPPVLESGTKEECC
Regarding `CCS(=O)(=O)C1=NN2C(=N)/C(=C\c3ccc(OS(=O)(=O)c4ccccc4)c(OC)c3)C(=O)N=C2S1`, the 50% inhibitory concentration (IC50) (in general, the point on the concentration scale where inhibition reaches its midpoint) is 17.8 µM (active). The result for `O=C(Nc1ccccc1Cc1ccccc1)c1ccccc1NS(=O)(=O)c1ccc(Cl)s1` reads 17 µM (active). The result for `O=C(O)c1ccccc1N=Nc1c(O)[nH]c2ccc([N+](=O)[O-])cc12` reads 23.3 µM (active); that for `COc1ccc(-c2nn(-c3ccccc3)cc2/C=C2/SC(=S)N(CCCC(=O)O)C2=O)c(C)c1`, 20.2 µM (active).

For `CCc1ccc(NC2=NC(=O)/C(=C/c3cc(Br)c(OCC(=O)O)c(OC)c3)S2)cc1`, the IC50 was 14.6 µM (active).
